Measurements published in patent US8653023B1, “Dual beneficial effect of dopamine enhancing and neuroprotective actions of PKC delta inhibitors for treatment of Parkinson's disease” (Iowa State University Research Foundation, Inc., priority 2006, dated 2014).
Read-outs that look alike come from different tables or passages of the source.

What was measured:
[1] = test system: MPTP-treated C57 black mice; experiment: MPTP-induced striatal dopamine depletion (HPLC-EC); format: in vivo
Procedure: Six to 8-week-old […] mice weighing 30 g were housed in standard conditions: constant temperature (22±1° C.), humidity (relative, 30%) and a 12-h light/dark cycle, and were allowed free access to food and water. The animals and protocol procedures were approved and supervised by the Committee on Animal Care (COAC) at the Iowa State University. Rottlerin was dissolved in 1% dimethyl sulfoxide (DMSO) and was administered intraperitoneally at various doses. An equal volume of DMSO was given to controls. Rottlerin and DMSO administrations were started 24 h before the injections of the MPTP and continued for 5 days in the MPTP model. In the chronic regimens of MPTP administration, MPTP in phosphate-buffered saline (PBS) was injected intraperitoneally at doses of 30 mg/kg, once a day. Mice were sacrificed 2 days after the MPTP injections, and the striata were dissected for catecholamine analysis. Additionally, rottlerin alone (0.3-20 mg/kg) was administered via intraperitoneally or orally and then brain tissues were subjected to neurochemical analyses (FIG. 8). The mesencephalons were fixed in 4% paraformaldehyde for 5 days for tyrosine hydroxylase (TH) immunostaining.
DA and DOPAC levels in brain striatal tissues were determined by high-performance liquid chromatography with electrochemical detection (HPLC-EC); samples were prepared as described previously (Kitazawa, Anantharam et al. 2001). Briefly, neurotransmitters were extracted from samples using 0.1M perchloric acid containing 0.05% Na2EDTA and 0.1% Na2S2O5. The extracts were filtered in 0.22 micron spin tubes and 20 μl of the samples was loaded for analysis. DA and DOPAC were separated isocratically by a reversed-phase column with a flow rate of 0.7 ml/min. An HPLC system (ESA Inc., Bedford, Mass.) with an ESA automatic sampler (model 542) was used for these experiments. The electrochemical detection (EC) system consisted of an ESA coulochem model 5100A with a microanalysis cell model 5014A and a guard cell model 5020 (ESA Inc., Bedford, Mass.). The DA and DOPAC levels were measured as pg/mg protein and expressed as percent of control.

Akt = conditions: cited from earlier work
[2] = test system: primary mesencephalic dopaminergic neuronal cells; format: cell-based, mice; conditions: 10 μM MPP+, 48 hrs
Procedure: Primary mesencephalic neuronal cultures were prepared from the ventral mesencephalon of gestational 16-18-day-old mice embryos as described previously (Yang et al., 2004). Mesencephalic tissues were dissected and maintained in ice-cold Ca^2+-free HESS and then dissociated in HESS solution containing trypsin-EDTA (0.25%) for 20 min at 37° C. The dissociated cells were then plated at equal density (0.5×10^6 cells) in 30-mm-diameter tissue culture wells precoated with poly-D-lysine (1 mg/ml). Cultures were maintained in a chemically defined medium consisting of neurobasal medium fortified with B-27 supplements, L-glutamine (500 μM), penicillin (100 IU/ml), and streptomycin (100 μg/ml) (Life Technologies). The cells were maintained in a humidified CO2 incubator (5% CO2, 37° C.) for 24 hr and then treated with cytosine arabinoside (10 μM) for 24 hr to inhibit glial cell proliferation. Half of the culture medium was replaced every 2 days. Approximately 6-7-day-old cultures were used for experiments. […]
After treatment, the primary mesencephalic neurons were fixed with 4% paraformaldehyde and processed for immunocytotochemical staining. […] Then the coverslips containing stained cells were washed with PBS, mounted on a slide, and viewed under a Nikon inverted fluorescence microscope (Model TE-2000U); images were captured with a SPOT digital camera (Diagnostic Instruments, Sterling Heights, Mich.).
We used Metamorph software (Universal Imaging, Version 5.0) for measurement of TH^+ cells and neuronal processes in primary neurons from each coverslip. For measurement of TH cell count, the images were first thresholded, and then neuronal count and volume were measured using the Integrated Morphometry Analysis (IMA) function. The data were logged to an Excel spreadsheet with defined row and column positions and then analyzed. […] The data were exported to an Excel spreadsheet and analyzed. TH^+ neurons and their processes were counted in at least six individual cultures for each treatment. This method is a modified version of methodology recently used for quantification of neuronal processes.

SMILES: CC(=O)c1c(O)c(C)c(O)c(Cc2c(O)c3c(c(C(=O)/C=C/c4ccccc4)c2O)OC(C)(C)C=C3)c1O [rottlerin]
- protection against dopamine loss induced by MPTP toxicity in striatum ([1]; 20 mg/kg rottlerin): 50%
- MPTP-induced decrease in dopamine and metabolite levels ([1]; oral 20 mg/kg and i.p. 3, 7 and 10 mg/kg rottlerin, dose-dependent): significantly antagonized
- dopamine level in striatum ([1]; rottlerin 20 mg/kg + MPTP 30 mg/kg for 5 days): 112.8±25.32 pg/mg tissue weight
- TPA-induced dephosphorylation of Akt (Akt): inhibited
- MPP+-induced degeneration of TH+ neurons and their processes ([2]; 0.3 μM rottlerin): significantly blocked
- MPP+-induced degeneration of TH+ neurons and their processes ([2]; 1 μM rottlerin): significantly blocked
